The logP is a log measure of how a compound divides between an organic and an aqueous phase. High values mean a more lipophilic compound, low ones a more hydrophilic compound.

`O=[N+]([O-])c1cc(Br)c(O)c(Br)c1`: the log partition coefficient (logP) came out at 3.07.
In the case of `CC(C)c1cccc(C2C(=O)c3ccccc3C2=O)c1` it was 4.43; in that of `Cc1cc(C)c(C(=O)O)c(C)c1`, 3.69; in that of `CCCCc1ccc(CC(=O)O)cc1`, 3.25.
As to `Cc1cccc(C2C(=O)c3ccccc3C2=O)c1`, the log partition coefficient (logP) is 3.46.
For `CCc1cccc(C2C(=O)c3ccccc3C2=O)c1`, the lipophilicity (logP) was 3.92.
The value for `CCC(C)(C)c1ccc(CC(=O)O)cc1` was 3.48.
The value for `O=C(O)c1cc([N+](=O)[O-])ccc1O` was 1.98; that for `COc1cc(OC)cc(C2C(=O)c3ccccc3C2=O)c1` was 2.86.
With `Cc1cc(C)cc(C2C(=O)c3ccccc3C2=O)c1`, the logP was 4.02.
In the case of `Cc1ccc(C2C(=O)c3ccccc3C2=O)cc1` it was 3.46; in that of `O=C(O)Cc1ccc(C2CCCCC2)cc1`, 3.81.
The value for `Cc1ccc(C(=O)O)c(C)c1` was 3.01.
In the case of `CCc1cc(CC)cc(C2C(=O)c3ccccc3C2=O)c1` it was 4.94.
`CCCc1ccc(CC(=O)O)cc1` had a logP of 2.75.
On to `COc1ccc(C2C(=O)c3ccccc3C2=O)cc1`, for which the logP stood at 2.88.
In the case of `O=C1c2ccccc2C(=O)C1c1cccc(C(F)(F)F)c1` it was 3.78; in that of `Cc1cc(C)c(C)c(C(=O)O)c1C`, 4.19.
`CCCOc1ccc(CC(=O)O)cc1` yielded a logP of 2.31.
In turn, `CCCCCCCCC(=O)O` registered a logP of 3.42.
In the case of `CC(C)(C)c1ccc(C2C(=O)c3ccccc3C2=O)cc1` it was 4.88.
In the case of `O=[N+]([O-])c1cc(Cl)c(O)c(Cl)c1` it was 2.96; in that of `CC(C)c1ccc(C2C(=O)c3ccccc3C2=O)cc1`, 4.43.
On to `COc1cccc(C2C(=O)c3ccccc3C2=O)c1`, for which the logP stood at 2.88.
In the case of `CCCCCCCCCCCC(=O)O` it was 4.92; in that of `CCc1ccc(C2C(=O)c3ccccc3C2=O)cc1`, 3.92.
On to `O=C(O)Cc1ccc(C2CCCC2)cc1`, for which the log partition coefficient (logP) was 3.44.
In the case of `O=C(O)CCCCCC(=O)O` it was 0.61; in that of `O=C1c2ccccc2C(=O)C1c1cccc(Cl)c1`, 3.61.
The value for `O=C(O)Cc1ccc(I)cc1` was 2.53; that for `CCCCCCCCc1ccc(C2C(=O)c3ccccc3C2=O)cc1` was 6.93; that for `CCCCCc1ccc(CC(=O)O)cc1` was 3.75.
The value for `O=C1c2ccccc2C(=O)C1c1ccc(Cl)cc1` was 3.61; that for `O=C(O)Cc1ccc([N+](=O)[O-])cc1` was 1.54; that for `CC(C)(C)c1cccc(C2C(=O)c3ccccc3C2=O)c1` was 4.88.
`CCCCCCCCCCC(=O)O` came in with a log partition coefficient (logP) of 4.42.
The value for `O=C1c2ccccc2C(=O)C1c1cc(Cl)cc(Cl)c1` was 4.32; that for `CC(C)c1cc(C(C)C)cc(C2C(=O)c3ccccc3C2=O)c1` was 5.96.
In the case of `CC(C)(C)c1cc(C2C(=O)c3ccccc3C2=O)cc(C(C)(C)C)c1` it was 6.86; in that of `CCCCCCc1ccc(CC(=O)O)cc1`, 4.25; in that of `O=C1c2ccccc2C(=O)C1c1ccc(Br)cc1`, 3.76.
Regarding `CCCCCCC(=O)O`, the logP was 2.42.
The value for `O=C1c2ccccc2C(=O)C1c1ccc(C(F)(F)F)cc1` was 3.78.
In the case of `O=C1c2ccccc2C(=O)C1c1ccc(-c2ccccc2)cc1` it was 4.79; in that of `O=C(O)Cc1ccccc1`, 1.41.
